Assay results as given in publication PMC12510010 (The Journal of Biological Chemistry, 2025).

Experiments:
Format in all cases: cell-based
[1] = test system: MRP4; fluid secretion in mouse enteroids; experiment: STc-stimulated fluid secretion in mouse enteroids with MK571; settings: STc (1 μM, 30 min), MK571 (10 μM, 30 min), n = 8 to 25 organoids
Procedure: (§1) Figure 4 GCC and MRP4 are functionally coupled in the intestinal epithelial cells. A, dot-blot analysis of GST-NHERF1-4 binding with the C-terminal 50 amino acids of MRP4 (MRP4C50) that contains the C-terminal PDZ-domain binding motif ETALCOOH. GST was used as a negative control. 2 and 20 ng of purified MRP4C50 were also immobilized on the nitrocellulose membrane as positive controls for detection. The detection of the protein interaction was performed using S-protein HRP Conjugate. B, the macromolecular complex formation assay between MRP4C50 and GCCC50via NHERF3. […] D, bar-graph represents the amount of cGMP measured using ELISA from total cell lysate and the supernatant (medium) from T-84 cells treated with ± STc (1 μM, 30 min) ± MK571 (10 μM, 30 min). n represents each data point with n = 6 to 8 obtained from three independent experiments. […] E, bar-graph represents the quantitation of fluid secretion in the mouse enteroids treated with ± STc (1 μM, 30 min) ± MK571 (10 μM, 30 min). Fluid secretion in the mouse enteroids calculated from n = 8 to 25 organoids per condition. […] F, bar-graph represents the quantitation of fluid secretion in the human enteroids treated with ± STc (1 μM, 30 min) ± MK571 (10 μM, 30 min). Fluid secretion in the human enteroids calculated from n = 12 to 17 organoids per condition. […]
(§2) Intestinal crypt isolation and quantitation of fluid secretion in enteroids […]

[2] = test system: MRP4 (cGMP in T-84 cells); experiment: Ratiometric FRET of live cGMP production with sensor cygnet 2.1; settings: STc (100 nm) + MK571 (10 μM), vs STc alone, t test p = 0.0481
Procedure: as §1

[3] = test system: MRP4 (cGMP efflux, T-84 cells); experiment: Extracellular cGMP (ELISA), T-84 cells; settings: STc (1 μM, 30 min) + MK571 (10 μM, 30 min), n = 6 to 8, three independent experiments
Procedure: as §1

[4] = test system: MRP4; fluid secretion in human enteroids; experiment: STc-stimulated fluid secretion in human enteroids with MK571; settings: STc (1 μM, 30 min), MK571 (10 μM, 30 min), n = 12 to 17 organoids
Procedure: as §1, §2

SMILES: CN(C)C(=O)CCSC(SCCC(=O)O)c1cccc(/C=C/c2ccc3ccc(Cl)cc3n2)c1 (stereo not shown) [MK571]
- STc-stimulated fluid secretion with MK571 [1]: enhanced STc-stimulated fluid secretion
- cGMP accumulation (ratiometric FRET) [2]: synergistic accumulation of cGMP
- cGMP in the cell supernatant [3]: reduced cGMP concentrations (in the cell supernatant)
- STc-stimulated fluid secretion with MK571 [4]: enhanced STc-stimulated fluid secretion
